Assay results taken from patent publication US20190330142A1, “INHIBITORS OF MTOR-DEPTOR INTERACTIONS AND METHODS OF USE THEREOF” (The Regents of the University of California, priority 2016, published 2019).
Read-outs that look alike come from different tables or passages of the source.

How the values were obtained:
8226 MM cell line = experiment: MTT cytotoxicity assay, 8226 MM cells; settings: for anti-MM cytotoxicity in MTT assay compared to parent B: 48 hr MTT
Procedure: In mTORC1, mTOR phosphorylates the p70S6 kinase. Thus, a Western blot was used to test for induction of p70 phosphorylation in this secondary screen. Compounds were tested at 0.5, 1, and 2 uM with 6 hrs in vitro exposure. […] A summary of the p70 phosphorylation data from 4 separate experiments where derivatives were used at 0.5 uM, is shown in FIG. 3B. These first 8 derivatives were also screened for cytotoxicity against the same 8226 MM cell line in 48 hr MTT assays.
P70 phosphorylation was measured in 8226 cells treated for 6 hrs. […] The structures and biological activity of all derivatives are shown in Tables 1-4, categorized by structural modification.
The MTT assay was performed by seeding 1-2×10^4 target cells in 0.1 ml of complete media into wells of a 96 well microtiter plate. After incubation with compounds, the reduction of MTT to formazan by live cells was determined with a microplate ELISA reader equipped with a 570 nm filter.
The induction of p70 phosphorylation by derivative compounds was determined by densitometry, comparing immunoblot signals of phosphorylated p70 vs total p70. This ratio was then compared to that resulting from parental compound B, with the latter ratio arbitrarily placed at ‘1’. The IC50 for MTT cytotoxicity was determined using a range of concentrations of derivatives. Percent apoptosis was enumerated by flow cytometry in drug-treated cultures by subtracting control apoptosis determined from DMSO-treated cultures.

DEPTOR/mTOR binding = molecular target: T1, DEPTOR/mTOR binding (Homo sapiens, UniProt Q8TB45); experiment: DEPTOR/mTOR co-immunoprecipitation in 8226 MM cells; assay type: cell-based; settings: for DEPTOR/mTOR binding in MM cells: 6 hrs
T1 construct: Western blot confirmed a significant over-expression of DEPTOR protein; host or cells: 8226 multiple myeloma cells
T1 sequence (Q8TB45 whole entry): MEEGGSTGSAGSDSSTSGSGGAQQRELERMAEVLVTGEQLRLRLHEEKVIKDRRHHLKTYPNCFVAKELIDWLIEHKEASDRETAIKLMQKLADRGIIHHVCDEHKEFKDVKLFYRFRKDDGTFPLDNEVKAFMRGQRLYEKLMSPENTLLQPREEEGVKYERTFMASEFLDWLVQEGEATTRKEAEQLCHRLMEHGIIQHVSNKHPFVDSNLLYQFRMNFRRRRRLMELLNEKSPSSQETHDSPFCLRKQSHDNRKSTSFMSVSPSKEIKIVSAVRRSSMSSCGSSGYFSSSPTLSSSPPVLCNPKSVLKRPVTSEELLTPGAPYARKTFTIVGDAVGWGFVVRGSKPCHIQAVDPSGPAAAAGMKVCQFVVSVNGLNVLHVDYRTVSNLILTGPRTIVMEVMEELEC

8226 cells = experiment: apoptosis assay (activated caspase 3, flow cytometry) in 8226 cells; assay type: cell-based; settings: 48 hrs
Procedure: (§1) These were then studied in more detail. […] This was clearly shown for 4d, 4e, 4 g, and 3 g.
To identify apoptotic cells, a phycoerythrin (PE)-conjugated antibody specific for activated caspase 3 (BD Biosciences) was used. For staining, 10^6 cells were washed with PB S and fixed and permeabilized with 0.5 ml cytofix/cytoperm solution. The cells were then incubated with a 1:5 dilution of PE-conjugated monoclonal anti-caspase 3 antibody for 30 mins and analyzed by flow cytometry.

MM1.S MM cell line = experiment: MTT cytotoxicity assay, MM1.S cells; assay type: cell-based; settings: Homo sapiens, 48 hr
Procedure: The MTT assay was performed by seeding 1-2×10^4 target cells in 0.1 ml of complete media into wells of a 96 well microtiter plate. After incubation with compounds, the reduction of MTT to formazan by live cells was determined with a microplate ELISA reader equipped with a 570 nm filter. Quadruplicate wells were run for each group and the SD of each group was always <5% of the mean.

RAPTOR-silenced MM cells = experiment: MTT cytotoxicity in RAPTOR-silenced MM cells; assay type: cell-based; settings: 48 hrs
Procedure: (§2) FIG. 5A-FIG. 5E depict exemplary assay data of compounds disclosed herein. […] Therapeutic indices (TIs) calculated as IC50 PBLs/IC50 for 8226 cells.
(§3) To compare anti-myeloma efficacy to non-specific toxicity, each of these 5 active derivatives were compared to compound B in their ability to inhibit survival of 8226 MM cells versus normal peripheral blood lymphocytes (PBLs). In head-to-head experiments, IC50 values for each target were calculated and compared. […] These derivatives were also tested for their anti-MM cytotoxicity in isogenic lines with RAPTOR knockdown.
The short hairpin RNAs (shRNA)/pLKO.1, targeting RAPTOR or a scrambled sequence (control) were obtained from Addgene. Lentivirus was produced by the UCLA Vector Core facility and stable cell lines were made by transducing cells with lentivirus and selecting in […].

[1] = tested on: p70 phosphorylation (mTORC1 activity) in 8226 cells; experiment: p70 phosphorylation Western blot (TORC1 activity) in 8226 cells; assay type: cell-based; settings: 6 hrs; for induction of p70 phosphorylation: 8226 cells, 0.5 uM, compared to compound B; for p70 phosphorylation vs compound B at lower concentrations: as low as 0.25 uM
Procedure: In mTORC1, mTOR phosphorylates the p70S6 kinase.
(§4) The 8226 and MM1.S myeloma cell lines were purchased from ATCC. The cell lines were characterized by FISH analysis and shown to contain MAF/Ig translocations. Western blot confirmed a significant over-expression of DEPTOR protein. Both lines were tested for mycoplasma within the last 6 months and were negative. Western blot assay—Protein was extracted and separated by 12.5% SDS-PAGE as previously described (see new ref below). Proteins were transferred to polyvinylidene difluoride membranes and their expression was detected utilizing specific antibodies purchased from Cell Signaling (Beverly, Mass.).

[2] = tested on: normal peripheral blood lymphocytes (PBLs); experiment: survival of normal peripheral blood lymphocytes versus 8226 MM cells; assay type: cell-based; settings: 48 hr assays
Procedure: as §2, §3

p21 expression = p21 expression immunoblot; assay type: cell-based
Procedure: as §1, §4

DEPTOR-mTOR interaction = molecular target: T2, DEPTOR-mTOR interaction (Homo sapiens, UniProt Q8TB45); experiment: yeast-2-hybrid screen of NCI library; assay type: cell-based; settings: pilot screening, hits
T2 construct: expressed in transfected cells; host or cells: yeast (two-hybrid)
T2 sequence (Q8TB45 whole entry): as above
From the text: (§5) The third compound, NSC118305, presented several positions for variation but we were worried about the conjugated diene unit since such polyolefinic units might give a rise to non-selective toxicity. […] Therefore the final compound shown, NSC 126405, which was called simply compound B, was chosen as the first compound to modify to try to improve its activity.

8226 myeloma tumors = experiment: subcutaneous xenograft tumor model of myeloma growth; assay type: in vivo, mice; settings: 20 mg/kg IP daily for 4 days
Procedure: Peripheral blood was analyzed for white blood cell (WBC), hematocrit (HCT), hemoglobin concentration (HgI) and platelet count.
Briefly, mice were challenged subcutaneously with 5×10^6 8226 cells and when myeloma tumors reached 500 mm^3, mice were treated with DMSO, compound B, or compound 3g (at 20 mg/kg) IP daily for 4 days. Tumor size (mean+/−SD, n=5) was assessed each day (FIG. 8A). *=different from control (DMSO), p<0.05, **=different from compound B, p<0.05. After 4 days of treatment, mice were sacrificed and peripheral blood analyzed for WBC, hematocrit (HCT), hemoglobin concentration (HgI) and platelet count (FIG. 8B). Data are % of control (determination in DMSO-Rx'd mice), mean+/−SD, n=5. *=different from DMSO control, p<0.05.

OPM2 = experiment: therapeutic index against OPM2 myeloma cell line; assay type: cell-based
From the text: (§6) FIG. 6A-FIG. 6D depict exemplary assay data for compounds disclosed herein. […] FIG. 6D highlights IC50 data for 3 g and Compound B (NSC126405).

DEPTOR = molecular target: T3, DEPTOR (Homo sapiens, UniProt Q8TB45); experiment: DEPTOR degradation; assay type: cell-based
T3 construct: endogenous in cells
T3 sequence (Q8TB45 whole entry): as above
From the text: FIG. 7A-FIG. 7F depict exemplary assay data for compounds disclosed herein. […] FIG. 7E and FIG. 7F depict data showing the anti-tumor effect was blunted by further transfection of DEPTOR to over-express the protein.

H929 = experiment: therapeutic index against H929 myeloma cell line; assay type: cell-based
From the text: as §6

[3] = tested on: normal hematopoietic colony forming cells; experiment: colony formation of normal hematopoietic colony forming cells; assay type: cell-based; settings: concentrations as high as 10 μM
From the text: as §5

[4] = 48 h, read-out: MTT (IC50, uM) 8226

| Compound | IC50 (8226 MM cell line; [4]) [µM] | anti-MM cytotoxicity in MTT assay compared to parent B (8226 MM cell line) | DEPTOR/mTOR binding in MM cells (DEPTOR/mTOR binding; 0.5 uM) | apoptosis activity compared to parent compound B (8226 cells) | IC50 (MM1.S MM cell line) [µM] | cytotoxicity against RAPTOR-silenced MM cells vs control shSCRAMBLE (RAPTOR-silenced MM cells) | p70 phosphorylation vs compound B at lower concentrations [1] | therapeutic index (IC50 PBLs/IC50 for 8226 cells) compared to compound B [2] | p21 expression compared to parent compound B (p21 expression) | inhibition of the DEPTOR-mTOR interaction (DEPTOR-mTOR interaction) | further results |
| --- | --- | --- | --- | --- | --- | --- | --- | --- | --- | --- | --- |
| Fc1ccc(NN=C2C(Cl)=C(Cl)C(Cl)=C2Cl)cc1 [3k, 1-(4-Fluorophenyl)-2-(perchlorocyclopenta-2,4-dien-1-ylidene)hydrazine] | 0.7 | enhanced cytotoxic effects | prevented DEPTOR/mTOR binding | enhanced compared to parent compound B | 1.3 | significantly decreased cytotoxicity | significantly more effective | significantly improved therapeutic indices | – | – | induction of p70 phosphorylation [1]: much better activity |
| CC(C)(C)C(=O)NN=C1C(Cl)=C(Cl)C(Cl)=C1Cl [4d, N′-(Perchlorocyclopenta-2,4-dien-1-ylidene)pivalohydrazide] | 0.12 | enhanced cytotoxic effects | – | enhanced compared to parent compound B | 2 | – | significantly more effective | – | enhanced p21 expression | – | – |
| CC(C)(C)OC(=O)NN=C1C(Cl)=C(Cl)C(Cl)=C1Cl [4g, tert-Butyl 2-(perchlorocyclopenta-2,4-dien-1-ylidene)hydrazine-1-carboxylate] | 0.1 | enhanced cytotoxic effects | prevented DEPTOR/mTOR binding | enhanced compared to parent compound B | 0.6 | significantly decreased cytotoxicity | significantly more effective | significantly improved therapeutic indices | enhanced p21 expression | – | – |
| CN(C)c1ccc(/C=C2\C=Cc3ccccc32)cc1F [NSC118305] | – | – | – | – | – | – | – | – | – | specifically inhibited the DEPTOR-mTOR interaction | – |
| CCCCCCCCNS(=O)(=O)c1ccccc1 [NSC119670] | – | – | – | – | – | – | – | – | – | specifically inhibited the DEPTOR-mTOR interaction | – |
| FC(F)(F)c1cccc(NN=C2C(Cl)=C(Cl)C(Cl)=C2Cl)c1 [compound 3g, 1-(Perchlorocyclopenta-2,4-dien-1-ylidene)-2-(3-(trifluoromethyl)phenyl)hydrazine] | 0.17 | enhanced cytotoxic effects | prevented DEPTOR/mTOR binding | enhanced compared to parent compound B | 1 | significantly decreased cytotoxicity | significantly more effective | enhanced therapeutic index | enhanced p21 expression | – | anti-tumor efficacy (tumor size) (8226 myeloma tumors): more efficacious than NSC 126405; effect on normal WBC counts (8226 myeloma tumors; peripheral blood): only a minimal effect; binding of DEPTOR to mTOR (DEPTOR/mTOR binding; concentration not given): inhibits binding of DEPTOR to mTOR; therapeutic index versus NSC126405 (OPM2): enhanced therapeutic index; degradation of DEPTOR (DEPTOR): induces the rapid proteasome-dependent degradation of DEPTOR; therapeutic index (IC50 PBLs/IC50 for 8226 cells) compared to compound B ([2]; listed as 3 g): significantly improved therapeutic indices; therapeutic index versus NSC126405 (H929): enhanced therapeutic index |
| O=C(c1ccc(F)cc1)N(N=C1C(Cl)=C(Cl)C(Cl)=C1Cl)C(=O)c1ccc(F)cc1 [compound 4e, 4-Fluoro-N-(4-fluorobenzoyl)-N′-(perchlorocyclopenta-2,4-dien-1-ylidene)benzohydrazide] | 0.25 | enhanced cytotoxic effects | – | enhanced compared to parent compound B | 0.3 | – | significantly more effective | – | enhanced p21 expression | – | – |
| NN=C1C(Cl)=C(Cl)C(Cl)=C1Cl [compound B, (Perchlorocyclopenta-2,4-dien-1-ylidene)hydrazine, reference compound] | – | – | ineffective | – | 3 | – | – | – | – | specifically inhibited the DEPTOR-mTOR interaction | IC50 (8226 MM cell line; 48 h, read-out: MTT (IC50, uM) 8226, 48 hr): 1.3 µM; IC50 (8226 MM cell line; read-out: MTT (IC50, uM) 8226, 48 hr): 1.5 µM; DEPTOR/mTOR binding in MM cells (DEPTOR/mTOR binding; 1 uM): prevents DEPTOR/mTOR binding; toxicity to normal hematopoietic colony formation [3]: not toxic to colony formation; induction of p70 phosphorylation [1]: consistently ineffective |
